Results taken from patent US10233198B2, “Pro-drugs of NSAIAs with very high skin and membranes penetration rates and their new medicinal uses” (Techfields Pharma Co., Ltd., priority 2007, dated 2019).
Blank lines part the entries; values can stand above or below the compound they belong to.

What was measured:
[1] = tested on: SLAC/GK rats, type 2 diabetes; assay: Blood glucose in type 2 diabetic rats, transdermal; format: in vivo; conditions: no fasting; for Blood glucose, diabetic rats, Baseline: baseline of the treatment group; for Blood glucose, diabetic rats, Average: transdermal, equal to 20 mg/kg of NSAIAs once per day for 5 weeks, measured every 3 days, second to fifth week
Description: (§1) The pro-drugs in this invention lower blood glucose levels in rat models (SLAC/GK, type 2 diabetes, n=7). 50% acetone solution of diethylaminoethyl acetylsalicylate.acetylsaficylic acid salt (P-1, in acetone); 4-acetamidophenyl salicylyldimethylaminobutyrate.HCl (P-6), diethylaminoethyl 5-(2,4-difluorophenyl) acetylsalicylate.5-(2,4-difluorophenyl) acetylsalicylic acid salt (P-8), diethylaminoethyl salicylsalicylate.AcOH (P-9), diethylaminoethyl salicylate.AcOH (P-10), diethylaminoethyl 5-acetamido-acetylsalicylate (P-58), diethylaminoethyl acetylsalicylsalicylate. acetylsalicylsalicylic acid salt (P-59), diethylaminoethyl acetylsalicylsalicylate. acetylsalicylsalicylsalicylic acid salt (P-60) (equal to of 20 mg/kg of NSAIAs) were administered transdermally to the backs (about 1.5 cm^2) of rats (fur was shaved) once per day (at 8 am) for 5 weeks. The blood glucose levels were measured once every 3 days at 4 pm (no fasting) from the second week to the fifth week. The blood lipid levels were measured at the end of the fifth week.

[2] = tested on: normal rats; assay: Blood glucose in normal rats, transdermal; format: in vivo; conditions: no fasting; for Blood glucose, normal rats, Baseline: baseline of the treatment group; for Blood glucose, normal rats, Average: transdermal, equal to 20 mg/kg of NSAIAs once per day for 5 weeks, second to fifth week
[3] = tested on: SLAC/GK rats, type 2 diabetes; assay: Blood lipid levels in type 2 diabetic rats, transdermal; format: in vivo; conditions: for Triglycerides, Baseline: baseline of the treatment group; for Cholesterol (total), Average / Triglycerides, Average: end of fifth week, transdermal, equal to 20 mg/kg of NSAIAs once per day
Description: as §1

[4] = tested on: SLAC/GK rats, type 2 diabetes; assay: Blood lipid levels in type 2 diabetic rats, oral with food; format: in vivo
Description: The pH of stomach juice is 1-3. The negative charge on the phosphate head group of membrane is neutralized by the proton and the positive charge on the amino groups of these pro-drugs cannot bond to the phosphate head group of membranes, then the pro-drugs cannot pass through the wall of the stomach and will not hurt or upset the stomach. The pH of the duodenum is about 5-7 and the pro-drugs can pass through the mucosa of duodenum. The pancreas is nearby and large amount of the pro-drugs will enter there before going to the liver, kidneys, and the general circulation where the drug will be metabolized, so only very low dose of these pro-drugs are needed and very few and low side effects will be caused. The 20% acetone solution of diethylaminoethyl acetylsalicylate.acetylsalicylic acid salt (P-1, in acetone); 4-acetamidophenyl salicylyldimethylaminobutyrate.HCl (P-6), diethylaminoethyl 5-(2,4-difluorophenyl) acetylsalicylate.5-(2,4-difluorophenyl) acetylsalicylic acid salt (P-8), diethylaminoethyl salicylsalicylate.AcOH (P-9), diethylaminoethyl salicylate.AcOH (P-10), diethylaminoethyl 5-acetamido-acetylsalicylate (P-58), diethylaminoethyl acetylsalicylsalicylate. acetylsalicylsalicylic acid salt (P-59), diethylaminoethyl acetylsalicylsalicylate. acetylsalicylsalicylsalicylic acid salt (P-60) (equal to of 15 mg/kg of NSAIAs) were mixed with food and were orally administered to the rats (SLAC/GK, type 2 diabetes, n=7) with food every day for 5 weeks. The blood glucose levels were measured once every 3 days at 3 pm (no fasting) from the second week to the fifth week. The blood lipid levels were measured at the end of the fifth week.

[5] = tested on: SLAC:NOD-IDDM mice, type 1 diabetes; assay: Blood glucose in type 1 diabetic mice, transdermal; format: in vivo; conditions: no fasting; for Blood glucose, type I diabetic mice, Baseline: baseline of the treatment group; for Blood glucose, type I diabetic mice, Average: transdermal, equal to 20 mg/kg of NSAIAs once per day for 7 weeks, fourth to seventh week
Description: The pro-drugs in this invention lower blood glucose levels in mouse models (SLAC:NOD-IDDM, type 1 diabetes, n=7). 20% acetone solution of diethylaminoethyl acetylsalicylate.acetylsalicylic acid salt (P-1, in acetone); 4-acetamidophenyl salicylyldimethylaminobutyrate.HCl (P-6), diethylaminoethyl 5-(2,4-difluorophenyl) acetylsalicylate.5-(2,4-difluorophenyl) acetylsalicylic acid salt (P-8), diethylaminoethyl salicylsalicylate.AcOH (P-9), diethylaminoethyl salicylate.AcOH (P-10), diethylaminoethyl 5-acetamido-acetylsalicylate (P-58), diethylaminoethyl acetylsalicylsalicylate. acetylsalicylsalicylic acid salt (P-59), diethylaminoethyl acetylsalicylsalicylate. acetylsalicylsalicylsalicylic acid salt (P-60) (equal to of 20 mg/kg of NSAIAs) were administered transdermally to the backs (about 1 cm^2) of mice (fur was shaved) once per day (at 8 am) for 7 weeks. The blood glucose levels were measured once every 3 days at 3 pm (no fasting) from the fourth week to the seventh week.

[6] = tested on: Chinese White rabbits; assay: Malassezia-induced psoriasis-like lesions; format: in vivo; conditions: 5% aqueous solution applied twice per day; 10 days after the application
Description: COX-1 and COX-2 play a very important role in animal immune-responses. NSAIAs inhibite COX-1 and COX-2. The pro-drugs of NSAIAs in this invention may be very useful for treating psoriasis, discoid lupus erythematosus, systemic lupus erythematosus (SLE), and other autoimmune diseases. Heavy suspensions of Malassezia [Rosenberg, E. W., et al., Mycopathologia, 72, 147-154 (1980)] were applied to the shaved skin on the backs of the Chinese white rabbits (n=4×6) twice (at 7 am and 7 pm) per day for 2 weeks, lesions similar to psoriasis resulted.

[7] = in vivo
Description: The in vivo rates of penetration of pro-drugs and their parent drugs through the skin of intact rats were compared. The donor consisted of 20% pro-drugs or their parent drugs in 1 ml of ethanol applied to about 5 cm^2 area on the backs of rats (˜200 g). After 4 hours, the rats were killed, and 5 ml of methanol was added to 1 ml of blood, 1 g of liver, 1 g of kidney, or 1 g of brain (liver, kidney or brain was washed with pH 7.2 buffer for three times) and the mixtures were homogenized. The samples were then centrifuged for 5 min and analyzed using HPLC.
After 4 hours, the rats were killed, and 5 ml of methanol was added to 1 ml of blood, 1 g of liver, 1 g of kidney, or 1 g of brain (liver, kidney or brain was washed with pH 7.2 buffer for three times) and the mixtures were homogenized.

[8] = baseline of the treatment group
[9] = end of fifth week, oral with food, equal to 15 mg/kg of NSAIAs every day

SMILES: CC(=O)Oc1ccccc1C(=O)Oc1ccccc1C(=O)Oc1ccccc1C(=O)O.CCN(CC)CCOC(=O)c1ccccc1OC(=O)c1ccccc1OC(C)=O [P-60, diethylaminoethyl acetylsalicylsalicylate. acetylsalicylsalicylsalicylic acid salt]
Blood glucose, diabetic rats, Baseline [1]: 15.5 ± 3 mmol/L
Blood glucose, diabetic rats, Average [1]: 8.6 ± 1 mmol/L
Blood glucose, normal rats, Baseline [2]: 6.6 ± 1 mmol/L
Blood glucose, normal rats, Average [2]: 7.5 ± 1 mmol/L
Triglycerides, Baseline [3]: 5.7 ± 0.6 mmol/L
Cholesterol (total), Average [3]: 5.2 ± 0.3 mmol/L
Triglycerides, Baseline [4, 8]: 6.2 ± 0.5 mmol/L
Cholesterol (total), Average [4, 9]: 5.0 ± 0.3 mmol/L
Blood glucose, type I diabetic mice, Baseline [5]: 25.5 ± 3 mmol/L
Blood glucose, type I diabetic mice, Average [5]: 8.6 ± 1 mmol/L

SMILES: CC(=O)O.CC(C)Cc1ccc(C(C)C(=O)OCC2CCCNC2)cc1 (stereo not drawn) [P-5, 3-piperidinemethyl 2-(ρ-isobutylphenyl) propionate.AcOH]
Psoriasis-like lesions [6]: the lesions were resolved

SMILES: CC(=O)O.CCN(CC)CCOC(=O)c1ccccc1OC(=O)c1ccccc1O [P-9, diethylaminoethyl salicylsalicylate.AcOH]
Blood glucose, diabetic rats, Average [1]: 8.4 ± 1 mmol/L
Blood glucose, normal rats, Baseline [2]: 6.5 ± 1 mmol/L
Blood glucose, normal rats, Average [2]: 6.7 ± 1 mmol/L
Triglycerides, Baseline [3]: 5.7 ± 0.5 mmol/L
Triglycerides, Average [3]: 2.6 ± 0.2 mmol/L
Cholesterol (total), Average [4, 9]: 5.3 ± 0.4 mmol/L
Blood glucose, type I diabetic mice, Baseline [5]: 26.5 ± 4 mmol/L
Blood glucose, type I diabetic mice, Average [5]: 9.4 ± 1 mmol/L

SMILES: CCN(CC)CCOC(=O)c1cc(NC(C)=O)ccc1OC(C)=O [P-58, diethylaminoethyl 5-acetamido-acetylsalicylate]
Blood glucose, diabetic rats, Baseline [1]: 17.1 ± 3 mmol/L
Blood glucose, normal rats, Average [2]: 7.1 ± 1 mmol/L
Cholesterol (total), Average [3]: 5.4 ± 0.4 mmol/L
Triglycerides, Baseline [4, 8]: 5.9 ± 0.5 mmol/L
Cholesterol (total), Average [4, 9]: 4.9 ± 0.4 mmol/L
Triglycerides, Average [4, 9]: 2.8 ± 0.2 mmol/L
Blood glucose, type I diabetic mice, Baseline [5]: 27.1 ± 3 mmol/L
Blood glucose, type I diabetic mice, Average [5]: 7.9 ± 1 mmol/L

SMILES: C=CCOc1ccc(CC(=O)OCCN(CC)CC)cc1Cl.CC(=O)O [P-18, diethylaminoethyl 3-chloro-4-(2-propenyloxy)benzeneacetate.AcOH]
Psoriasis-like lesions [6]: the lesions were resolved

SMILES: CC(=O)O.CCN(CC)CCOC(=O)COC(=O)Cc1c(C)n(C(=O)c2ccc(Cl)cc2)c2ccc(OC)cc12 [P-20]
Psoriasis-like lesions [6]: the lesions were resolved

SMILES: CC(=O)O.CCN(CC)CCOC(=O)c1ccccc1O [P-10, diethylaminoethyl salicylate.AcOH]
Blood glucose, diabetic rats, Baseline [1]: 15.8 ± 3 mmol/L
Blood glucose, diabetic rats, Average [1]: 8.2 ± 1 mmol/L
Blood glucose, normal rats, Baseline [2]: 6.8 ± 1 mmol/L
Triglycerides, Baseline [3]: 6.6 ± 0.6 mmol/L
Triglycerides, Average [3]: 2.9 ± 0.2 mmol/L
Blood glucose, type I diabetic mice, Baseline [5]: 25.8 ± 3 mmol/L
Blood glucose, type I diabetic mice, Average [5]: 8.2 ± 1 mmol/L

Drug found in rat tissues or plasma after topical application of the parent drug itself [7]: None of these drugs was found
Brain level of prodrug or metabolite ([7]; rat, 4 h): 35 ± 5 µg/g
Kidney level of prodrug or metabolite ([7]; rat, 4 h): 45 ± 6 µg/g
Liver level of prodrug or metabolite ([7]; rat, 4 h): 35 ± 8 µg/g
Plasma level of prodrug or metabolite ([7]; rat, 4 h): 70 ± 8 µg/mL
SMILES: CC(C)Cc1ccc(C(C)C(=O)O)cc1 (stereo not drawn) [ibuprofen]

Drug found in rat tissues or plasma after topical application of the parent drug itself [7]: None of these drugs was found
Brain level of prodrug or metabolite ([7]; rat, 4 h): 40 ± 5 µg/g
Kidney level of prodrug or metabolite ([7]; rat, 4 h): 48 ± 6 µg/g
Liver level of prodrug or metabolite ([7]; rat, 4 h): 25 ± 8 µg/g
Plasma level of prodrug or metabolite ([7]; rat, 4 h): 75 ± 8 µg/mL
SMILES: O=C(O)Cc1ccccc1Nc1c(Cl)cccc1Cl [diclofenac]

SMILES: CC(=O)O.CCN(CC)CCOC(=O)Cc1sc(-c2ccccc2)nc1-c1ccc(Cl)cc1 [P-21, diethylaminoethyl 4-(4-chlorophenyl)-2-phenyl-5-thiazoleacetate.AcOH]
Psoriasis-like lesions [6]: the lesions were resolved

SMILES: CC(=O)Oc1ccc(-c2ccc(F)cc2F)cc1C(=O)O.CCN(CC)CCOC(=O)c1cc(-c2ccc(F)cc2F)ccc1OC(C)=O [P-8, diethylaminoethyl 5-(2,4-difluorophenyl) acetylsalicylate.5-(2,4-difluorophenyl) acetylsalicylic acid salt]
Blood glucose, diabetic rats, Baseline [1]: 17.1 ± 3 mmol/L
Blood glucose, diabetic rats, Average [1]: 8.1 ± 1 mmol/L
Blood glucose, normal rats, Baseline [2]: 7.1 ± 1 mmol/L
Triglycerides, Average [3]: 2.1 ± 0.2 mmol/L
Cholesterol (total), Baseline [4, 8]: 7.4 ± 0.6 mmol/L
Triglycerides, Baseline [4, 8]: 6.2 ± 0.7 mmol/L
Cholesterol (total), Average [4, 9]: 5.1 ± 0.3 mmol/L
Blood glucose, type I diabetic mice, Baseline [5]: 29.1 ± 5 mmol/L
Blood glucose, type I diabetic mice, Average [5]: 9.1 ± 1 mmol/L

SMILES: CC(=O)O.CCN(CC)CCOC(=O)Cc1cc(C)c(C(=O)c2ccc(Cl)cc2)n1C [P-14, diethylaminoethyl 5-(4-Chlorobenzoyl)-1,4-dimethyl-1H-pyrrole-2-acetate.AcOH]
Psoriasis-like lesions [6]: the lesions were resolved

SMILES: CC(=O)O.CCc1cccc2c3c([nH]c12)C(CC)(CC(=O)OCCN(CC)CC)OCC3 (stereo not drawn) [P-15, diethylaminoethyl 1,8-diethyl-1,3,4,9-tetrahydropyrano-[3,4-b]indole-1-acetate.AcOH]
Psoriasis-like lesions [6]: the lesions were resolved

Brain level of prodrug or metabolites ([7]; rat, 4 h): 30 ± 6 µg/g
Kidney level of prodrug or metabolites ([7]; rat, 4 h): 45 ± 6 µg/g
Liver level of prodrug or metabolites ([7]; rat, 4 h): 30 ± 8 µg/g
Plasma level of prodrug or metabolites ([7]; rat, 4 h): 80 ± 10 µg/mL
SMILES: O=C(O)c1ccccc1O [Salicylic acid]

SMILES: CC(=O)O.CCN(CC)CCOC(=O)Cc1cn(-c2ccccc2)nc1-c1ccc(Cl)cc1 [P-22, diethylaminoethyl 3-(4-chlorophenyl)-1-phenyl-1H-pyrazole-4-acetate.AcOH]
Psoriasis-like lesions [6]: the lesions were resolved

SMILES: CC(=O)Nc1ccc(OC(=O)c2ccccc2OC(=O)CCCN(C)C)cc1.Cl [P-6, 4-acetamidophenyl salicylyldimethylaminobutyrate.HCl]
Blood glucose, diabetic rats, Baseline [1]: 16.7 ± 4 mmol/L
Blood glucose, diabetic rats, Average [1]: 8.5 ± 2 mmol/L
Blood glucose, normal rats, Baseline [2]: 6.8 ± 1 mmol/L
Blood glucose, normal rats, Average [2]: 6.5 ± 1 mmol/L
Triglycerides, Baseline [3]: 6.3 ± 0.5 mmol/L
Cholesterol (HDL), Baseline [4, 8]: 1.8 ± 0.1 mmol/L
Triglycerides, Baseline [4, 8]: 5.9 ± 0.5 mmol/L
Blood glucose, type I diabetic mice, Baseline [5]: 27.7 ± 4 mmol/L
Blood glucose, type I diabetic mice, Average [5]: 9.5 ± 2 mmol/L

Drug found in rat tissues or plasma after topical application of the parent drug itself [7]: None of these drugs was found
Brain level of prodrug or metabolite ([7]; rat, 4 h): 45 ± 5 µg/g
Kidney level of prodrug or metabolite ([7]; rat, 4 h): 48 ± 6 µg/g
Liver level of prodrug or metabolite ([7]; rat, 4 h): 38 ± 8 µg/g
Plasma level of prodrug or metabolite ([7]; rat, 4 h): 80 ± 8 µg/mL
SMILES: CC(C(=O)O)c1cccc(Oc2ccccc2)c1 (stereo not drawn) [fenoprofen]

Drug found in rat tissues or plasma after topical application of the parent drug itself [7]: None of these drugs was found
SMILES: CC(=O)Oc1ccccc1C(=O)O [Aspirin]
